The values below come from patent US10000507B2, “Furo- and thieno-pyridine carboxamide compounds useful as pim kinase inhibitors” (Incyte Corporation, priority 2013, dated 2018).

What all share (type): biochemical
For test [1], the target named is Pim-3 (Homo sapiens (Human), UniProt Q86V86). Put plainly: Pim-3 kinase assay. Particulars: 1 mM ATP, biotin-labeled BAD peptide substrate; read-out: Pim3 IC50. An outline of the steps: (§1)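 Biotin-BAD peptide ([…]) phosphorylated with 1 mM ATP by 2.5 pM Pim-1 or 1.25 pM Pim-3, 1 h at 25 °C in Tris pH 7.5, MgCl2, DTT buffer. EDTA stop with anti-phospho-BAD (Ser112) antibody and AlphaScreen streptavidin donor/Protein-A acceptor beads; signal read after 1 h dark incubation.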

Test [2] concerns the target Pim-1 (Homo sapiens (Human), UniProt P11309). Put plainly: Pim-1 kinase assay. The following applies: 1 mM ATP, biotin-labeled BAD peptide substrate; read-out: Pim1 IC50. An outline of the steps: as §1
The target in test [3] is Pim-2 (Homo sapiens (Human), UniProt Q9P1W9). Briefly: Pim-2 kinase assay. The following applies: 1 mM ATP, fluorescein-labeled CREBtide peptide substrate; read-out: Pim2 IC50. Summed up: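 TR-FRET assay: 1 nM Pim-2 with 0.05 μM fluorescein-CREBtide and 1 mM ATP in Tris pH 7.5, 5 mM MgCl2, 5 mM DTT, 2 h at 25 °C. EDTA stop, then Tb-anti-pCREB Ser133 antibody for 30 min before reading.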
Sequence of Pim-2 (Q9P1W9 whole entry): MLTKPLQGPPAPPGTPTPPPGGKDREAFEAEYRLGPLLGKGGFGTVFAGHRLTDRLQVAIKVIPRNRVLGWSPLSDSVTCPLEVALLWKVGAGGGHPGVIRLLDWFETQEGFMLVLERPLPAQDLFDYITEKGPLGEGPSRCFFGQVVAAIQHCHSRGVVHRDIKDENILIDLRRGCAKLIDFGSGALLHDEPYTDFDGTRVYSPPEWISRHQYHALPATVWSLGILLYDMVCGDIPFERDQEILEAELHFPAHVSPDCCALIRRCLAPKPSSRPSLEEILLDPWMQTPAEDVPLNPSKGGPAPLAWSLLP

Molecules are shown by their SMILES.

Sequence of Pim-1 (P11309 whole entry): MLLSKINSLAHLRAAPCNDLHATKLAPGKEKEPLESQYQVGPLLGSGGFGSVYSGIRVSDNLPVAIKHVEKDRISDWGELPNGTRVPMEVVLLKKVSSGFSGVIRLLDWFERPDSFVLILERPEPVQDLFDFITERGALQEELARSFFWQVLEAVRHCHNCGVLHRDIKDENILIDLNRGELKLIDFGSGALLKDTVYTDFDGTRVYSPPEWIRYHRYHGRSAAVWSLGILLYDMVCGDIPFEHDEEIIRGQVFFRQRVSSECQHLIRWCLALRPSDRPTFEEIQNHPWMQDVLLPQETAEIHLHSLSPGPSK

On to `CN1CC(c2cnc3c(C(=O)Nc4cnn(C)c4N4CCCC(N)CC4)c(N)sc3c2)C1` (stereo not drawn) [Example 32, 2-Amino-N-[5-(4-aminoazepan-1-yl)-1-methyl-1H-pyrazol-4-yl]-6-(1-methylazetidin-3-yl)thieno[3,2-b]pyridine-3-carboxamide], for which the IC50 in test [1] is at most 10 nM; in test [2], at most 10 nM; in test [3] it was 100 to 1000 nM.
Consider `C[C@@H]1C[C@H](N)CN(c2ccncc2NC(=O)c2c(N)oc3cc(F)cnc23)C1` [Example 71, 2-Amino-N-{4-[(3S,5R)-3-amino-5-methyl-piperidin-1-yl]pyridin-3-yl}-6-fluorofuro[3,2-b]pyridine-3-carboxamide], for which the figures for the IC50 in test [1], in test [2] and in test [3] were at most 10 nM, at most 10 nM and 10 to 100 nM, respectively.
As to `Nc1sc2c(C(F)(F)F)ccnc2c1C(=O)Nc1cnccc1N1CCC[C@H](N)C1` [Example 38, 2-Amino-N-{4-[(3S)-3-aminopiperidin-1-yl]pyridin-3-yl}-7-trifluoromethyl-thieno[3,2-b]pyridine-3-carboxamide], the IC50 is at most 10 nM in test [1], at most 10 nM in test [2] and 100 to 1000 nM in test [3].
With `Nc1oc2cccnc2c1C(=O)Nc1cnccc1[C@H]1C[C@@H](N)C[C@@H](C(F)(F)F)C1` [Example 136, 2-Amino-N-{4-[(1R,3R,5S)-3-amino-5-(trifluoromethyl)cyclohexyl]pyridin-3-yl}furo[3,2-b]pyridine-3-carboxamide], the results for the IC50 in test [1], in test [2] and in test [3] were at most 10 nM, at most 10 nM and 10 to 100 nM, respectively.
Consider `CC(C)c1cnc2c(C(=O)Nc3cnccc3N3C[C@@H](N)[C@H](O)[C@@H](C4CC4)C3)c(N)oc2c1` [Example 89, 2-Amino-N-{4-[(3R,4R,5S)-3-amino-5-cyclopropyl-4-hydroxypiperidin-1-yl]pyridin-3-yl}-6-isopropylfuro[3,2-b]pyridine-3-carboxamide], for which the IC50 in test [1], in test [2] and in test [3] was at most 10 nM throughout.
As to `Nc1oc2cc(-c3cncnc3)cnc2c1C(=O)Nc1cnccc1N1C[C@@H](N)C[C@@H](C(F)(F)F)C1` [Example 111, 2-Amino-N-{4-[(3S,5R)-3-amino-5-(trifluoromethyl)piperidin-1-yl]pyridin-3-yl}-6-pyrimidin-5-ylfuro[3,2-b]pyridine-3-carboxamide], the IC50 in test [1] is at most 10 nM; in test [2] it was at most 10 nM; in test [3], 10 to 100 nM.
As for `Nc1oc2cc(C3CC3)cnc2c1C(=O)Nc1cnccc1N1C[C@@H](N)C[C@@H](C(F)(F)F)C1` [Example 113, 2-Amino-N-{4-[(3S,5R)-3-amino-5-(trifluoromethyl)piperidin-1-yl]pyridin-3-yl}-6-cyclopropylfuro[3,2-b]pyridine-3-carboxamide], the IC50 in test [1], in test [2] and in test [3] was at most 10 nM each time.
Turning to `CNC(=O)c1ccc(-c2cnc3c(C(=O)Nc4cnccc4N4C[C@@H](N)C[C@@H](C(F)(F)F)C4)c(N)oc3c2)cn1` [Example 126], the IC50 in test [1] was at most 10 nM; in test [2], at most 10 nM; in test [3], 10 to 100 nM.
`C[C@@H]1C[C@H](N)CN(c2ccncc2NC(=O)c2c(N)oc3cc(C4CC4)cnc23)C1` [Example 114, 2-Amino-N-{4-[(3S,5R)-3-amino-5-methylpiperidin-1-yl]pyridin-3-yl}-6-cyclopropylfuro[3,2-b]pyridine-3-carboxamide]: the IC50 in test [1], in test [2] and in test [3] was at most 10 nM each time.
With `Nc1oc2cc(CN3CC(F)C3)cnc2c1C(=O)Nc1cnccc1N1C[C@@H](N)C[C@@H](C(F)(F)F)C1` [Example 99, 2-Amino-N-{4-[(3S,5R)-3-amino-5-(trifluoromethyl)piperidin-1-yl]pyridin-3-yl}-6-[(3-fluoroazetidin-1-yl)methyl]furo[3,2-b]pyridine-3-carboxamide], the figures for the IC50 in test [1], in test [2] and in test [3] were at most 10 nM, at most 10 nM and 10 to 100 nM, respectively.
With `Cn1ncc(NC(=O)c2c(N)sc3ccc(Cl)nc23)c1N1CCCC(N)CC1` (stereo not drawn) [Example 39, 2-Amino-N-[5-(4-aminoazepan-1-yl)-1-methyl-1H-pyrazol-4-yl]-5-chlorothieno[3,2-b]pyridine-3-carboxamide], the results for the IC50 in test [1], in test [2] and in test [3] were at most 10 nM, at most 10 nM and 100 to 1000 nM, respectively.
On to `Nc1sc2cccnc2c1C(=O)Nc1cnccc1N1CCCC(N)CC1` (stereo not drawn) [Example 9, 2-Amino-N-[4-(4-aminoazepan-1-yl)pyridin-3-yl]thieno[3,2-b]pyridine-3-carboxamide], for which the IC50 in test [1] is above 40 nM; in test [2] it was 10 to 100 nM; in test [3], above 2000 nM.
For `C[C@@H]1C[C@H](N)CN(c2ccncc2NC(=O)c2c(N)oc3cc(C4CCOCC4)cnc23)C1` [Example 95, 2-Amino-N-{4-[(3S,5R)-3-amino-5-methylpiperidin-1-yl]pyridin-3-yl}-6-(tetrahydro-2H-pyran-4-yl)furo[3,2-b]pyridine-3-carboxamide], the IC50 in test [1] was at most 10 nM; in test [2] it was at most 10 nM; in test [3], 10 to 100 nM.
Regarding `Cc1noc(C)c1-c1cnc2c(C(=O)Nc3cnccc3N3CCC[C@H](N)C3)c(N)sc2c1` [Example 28, 2-Amino-N-{4-[(3S)-3-aminopiperidin-1-yl]pyridin-3-yl}-6-(3,5-dimethylisoxazol-4-yl)-thieno[3,2-b]pyridine-3-carboxamide], the IC50 in test [1] is above 40 nM; in test [2] it was at most 10 nM; in test [3], above 2000 nM.
On the same counts, the results for `C[C@@H]1C[C@H](N)CN(c2ccncc2NC(=O)c2c(N)oc3cc(C(F)(F)F)cnc23)C1` [Example 73, 2-Amino-N-{4-[(3S,5R)-3-amino-5-methyl-piperidin-1-yl]pyridin-3-yl}-6-(trifluoromethyl)-furo[3,2-b]pyridine-3-carboxamide] are at most 10 nM, at most 10 nM and 10 to 100 nM.
For the molecule `Cn1ncc(NC(=O)c2c(N)sc3cc(-c4ccccc4)cnc23)c1N1CCCC(N)CC1` (stereo not drawn) [Example 25, 2-Amino-N-[5-(4-aminoazepan-1-yl)-1-methyl-1H-pyrazol-4-yl]-6-phenylthieno[3,2-b]pyridine-3-carboxamide], the IC50 is at most 10 nM in test [1], at most 10 nM in test [2] and 10 to 100 nM in test [3].
Take `CCOC1CCN(Cc2cnc3c(C(=O)Nc4cnccc4N4C[C@@H](N)C[C@@H](C(F)(F)F)C4)c(N)oc3c2)C1` (stereo partly drawn) [Example 104, 2-Amino-N-{4-[(3S,5R)-3-amino-5-(trifluoromethyl)piperidin-1-yl]pyridin-3-yl}-6-[(3-ethoxypyrrolidin-1-yl)methyl]furo[3,2-b]pyridine-3-carboxamide]: the figures for the IC50 in test [1], in test [2] and in test [3] were at most 10 nM, at most 10 nM and 10 to 100 nM, respectively.
For `CC(C)c1cnc2c(C(=O)Nc3cnccc3N3C[C@@H](N)[C@H](O)[C@@H](C)C3)c(N)sc2c1` [Example 139, 2-Amino-N-(4-((3R,4R,5S)-3-amino-4-hydroxy-5-methylpiperidin-1-yl)pyridin-3-yl)-6-isopropylthieno[3,2-b]pyridine-3-carboxamide], the IC50 in test [1], in test [2] and in test [3] was at most 10 nM each time.
